# Reference: article PMC3254236 (Bioorganic & Medicinal Chemistry, 2011)
# Biological target: T1, full length murine FXR (Mus musculus, UniProt Q60641)
# T1 sequence (Q60641 1-488): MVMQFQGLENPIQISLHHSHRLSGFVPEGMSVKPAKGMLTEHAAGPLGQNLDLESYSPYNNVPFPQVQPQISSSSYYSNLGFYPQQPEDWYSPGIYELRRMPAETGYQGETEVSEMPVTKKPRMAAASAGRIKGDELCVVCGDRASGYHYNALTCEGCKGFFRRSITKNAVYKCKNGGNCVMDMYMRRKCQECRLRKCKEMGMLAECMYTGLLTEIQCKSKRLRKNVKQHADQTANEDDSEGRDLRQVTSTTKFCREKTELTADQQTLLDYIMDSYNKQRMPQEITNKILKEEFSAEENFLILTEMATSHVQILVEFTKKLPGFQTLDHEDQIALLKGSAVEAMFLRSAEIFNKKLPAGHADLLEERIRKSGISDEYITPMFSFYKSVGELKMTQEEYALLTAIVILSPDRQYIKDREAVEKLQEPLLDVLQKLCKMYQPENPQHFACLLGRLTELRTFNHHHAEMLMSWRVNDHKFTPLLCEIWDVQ
# T1 sequence (P28700 1-467 partner): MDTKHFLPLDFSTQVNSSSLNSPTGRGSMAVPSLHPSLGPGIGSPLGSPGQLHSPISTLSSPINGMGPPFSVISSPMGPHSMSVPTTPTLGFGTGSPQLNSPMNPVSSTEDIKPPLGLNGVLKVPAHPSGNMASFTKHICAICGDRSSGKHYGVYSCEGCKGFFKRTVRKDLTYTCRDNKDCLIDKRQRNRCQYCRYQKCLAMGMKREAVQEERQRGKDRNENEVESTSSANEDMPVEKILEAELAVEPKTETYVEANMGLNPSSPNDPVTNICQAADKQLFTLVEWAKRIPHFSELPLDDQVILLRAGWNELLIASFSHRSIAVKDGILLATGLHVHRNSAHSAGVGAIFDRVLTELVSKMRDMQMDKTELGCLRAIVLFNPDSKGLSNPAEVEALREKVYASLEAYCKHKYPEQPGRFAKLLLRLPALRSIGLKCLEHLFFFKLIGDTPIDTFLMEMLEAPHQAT
# Assay: Reporter gene assay for FXR activation
# Type: cell-based
# Settings: Ganoderma constituents 10 μM; normalized to CDCA 25 μM
row,Compound,Induction of FXR-dependent transcription
1,"CC(C)[C@@H](C)/C=C/[C@@H](C)[C@H]1CC[C@@H]2[C@]1(C)CC[C@H]1[C@]23C=C[C@]2(C[C@@H](O)CC[C@]12C)OO3 [Compound 2, ergosterol peroxide]",reached statistical significance
2,"C[C@H](CC[C@H](O)C(C)(C)O)[C@H]1CC[C@@]2(C)C3=C(CC[C@]12C)[C@@]1(C)CCC(=O)C(C)(C)[C@@H]1CC3=O [Compound 11, lucidumol A]",reached statistical significance

# Second part, the compound after the results:
row,Induction of FXR-dependent transcription,Compound
1,reached statistical significance,"C[C@H](CC[C@H](O)[C@](C)(O)CO)[C@H]1CC[C@@]2(C)C3=CC[C@H]4C(C)(C)C(=O)CC[C@]4(C)C3=CC[C@]12C [Compound 13, ganodermanontriol]"
2,reached statistical significance,"C[C@H](CCC=C(CO)CO)[C@H]1CC[C@@]2(C)C3=CC[C@H]4C(C)(C)C(=O)CC[C@]4(C)C3=CC[C@]12C [Compound 14, ganoderiol F]"
3,reached statistical significance,ganoderic acid TR [Compound 12]

# Same assay, conditions: dose-dependent FXR reporter activation; test concentrations 0.1-50 μM
row,EC50 [µM],Compound
1,> 14,ganoderic acid TR [Compound 12]

# Same assay, conditions: pure compounds 10 μg/mL; compared with CDCA 25 μM
row,Compound,FXR induction (percent of CDCA)
1,COc1ccc(-c2oc3cc(OC)c(OC)c(O)c3c(=O)c2OC)cc1OC [artemisetin],"activated FXR significantly, but at lower extent than CDCA"
2,COc1cc(CNC(=O)CCCCCCC(C)C)ccc1O [dihydrocapsaicin],No activation
3,C=CC(C)(C)c1cc2cc3c(cc2oc1=O)OC(C(C)(C)OC(C)=O)C3 (stereo not drawn) [rutamarin],"activated FXR significantly, but at lower extent than CDCA"
